From US9593309B2, “Media for culturing, preserving, and administering regenerative cells” (InGeneron, Inc., priority 2012, dated 2017)

What was measured:
[1] = tested on: Ad-MSCs (canine adipose SVF cells); assay: Ad-MSC proliferation, nucleated cell counts (Syto13) of plated adipose SVF cells; format: cell-based; details: concentration not given
Experimental: Assays for cell proliferation, colony forming units (CFU), gene expression analyses, cell surface markers, and chondrogenic and osteogenic differentiation were performed. Cell growth and Colony Forming Units (CFU) were grown in monolayer on tissue culture grade plastic in alpha MEM, 20% FBS (v/v), pen/strep. Nucleated cell counts were performed by staining with Syto13 (Invitrogen) followed by hemacytometer counting under fluorescence microscopy. Gene expression analysis was performed by quantitative RT-PCR profiling, BioRad iQ. Flow Activated Cell Storing (FACS) analyses were performed at M.D. Anderson Cancer Center FACS Core Facilities, Houston, Tex. by GALLIOS Flow Cytometry Instruments (Beckman Coulter). […]
Media was changed at days 3 and 6. Nucleated cell counts were performed by Syto13 staining followed by hemacytometer counting under fluorescence microscopy (FIG. 1B).
Fresh canine adipose SVF cells were plated at equal nucleated cell density and grown for 7 days in culture on tissue culture plastic in the presence of complete growth media and the respective concentrations (v/v) of GAG formulation. Nucleated cell counts were performed by Syto13 staining followed by hemacytometer counting under fluorescence microscopy. […]

[2] = tested on: Sox2; assay: Sox2 mRNA level in cultured Ad-MSCs, normalized to β-Actin; format: cell-based, canine; details: 5% (v/v) formulation, 6 days culture, vs other GAG formulations
Experimental: Assays for cell proliferation, colony forming units (CFU), gene expression analyses, cell surface markers, and chondrogenic and osteogenic differentiation were performed. Cell growth and Colony Forming Units (CFU) were grown in monolayer on tissue culture grade plastic in alpha MEM, 20% FBS (v/v), pen/strep. Nucleated cell counts were performed by staining with Syto13 (Invitrogen) followed by hemacytometer counting under fluorescence microscopy. Gene expression analysis was performed by quantitative RT-PCR profiling, BioRad iQ. Flow Activated Cell Storing (FACS) analyses were performed at M.D. Anderson Cancer Center FACS Core Facilities, Houston, Tex. by GALLIOS Flow Cytometry Instruments (Beckman Coulter). For osteogenic and chondrogenic differentiation, cells were cultured in STEMPRO induction media (Invitrogen, Carlsbad, Calif.) for 14 days, fixed in 4% formalin, and stained with Alzarin red and Alcian Blue, respectively. Statistical analyses were performed by ANOVA.
Canine Ad-MSCs were grown for 6 days in culture in the presence of complete growth media and the respective 5% (v/v) GAG formulations. Magnification=100×. Sox2 levels, a marker of stem cell proliferation, were measured in total RNA samples and normalized to β-Actin mRNA. Here “GAG” represents poly-sulfated glycosaminoglycan (ADEQUAN).

## hyaluronic acid [HA]
[1]
  effect on cell proliferation when added to culture media: pro-mitotic, but to a lesser magnitude
[2]
  Sox2 levels: qualitatively similar, but of lesser magnitude
